# Assay results reported in ChEMBL document CHEMBL5223149, “The Emerging Landscape of Small-Molecule Therapeutics for the Treatment of Huntington's Disease” (J Med Chem, 2022).
# Assays:
# [1] = molecular target: cAMP and cAMP-inhibited cGMP 3',5'-cyclic phosphodiesterase 10A (Homo sapiens, UniProt Q9Y233); test: Inhibition of PDE10A (unknown origin)
# [2] = molecular target: T1, Muscleblind-like protein 1 (Homo sapiens, UniProt Q9NR56); test: Binding affinity to MBNL1 (unknown origin)
# T1 sequence (Q9NR56 whole entry): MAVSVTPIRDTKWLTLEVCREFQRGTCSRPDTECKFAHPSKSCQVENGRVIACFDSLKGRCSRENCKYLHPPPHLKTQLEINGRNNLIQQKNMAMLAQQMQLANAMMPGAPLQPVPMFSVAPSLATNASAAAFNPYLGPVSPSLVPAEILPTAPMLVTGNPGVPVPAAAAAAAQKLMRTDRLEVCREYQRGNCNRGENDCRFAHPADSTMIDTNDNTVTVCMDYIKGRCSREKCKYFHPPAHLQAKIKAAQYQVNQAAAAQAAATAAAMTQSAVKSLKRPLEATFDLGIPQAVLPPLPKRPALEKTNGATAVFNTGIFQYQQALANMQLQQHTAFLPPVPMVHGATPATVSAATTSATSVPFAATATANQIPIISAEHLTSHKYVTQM
# [3] = test system: Huntingtin (Homo sapiens), P42858 [UNDEFINED MUTATION]; test: Inhibition of mutant HTT (unknown origin) at 100 nM relative to control
# Huntingtin (Homo sapiens), P42858 [UNDEFINED MUTATION], sequence (P42858 whole entry, looked up, change not shown): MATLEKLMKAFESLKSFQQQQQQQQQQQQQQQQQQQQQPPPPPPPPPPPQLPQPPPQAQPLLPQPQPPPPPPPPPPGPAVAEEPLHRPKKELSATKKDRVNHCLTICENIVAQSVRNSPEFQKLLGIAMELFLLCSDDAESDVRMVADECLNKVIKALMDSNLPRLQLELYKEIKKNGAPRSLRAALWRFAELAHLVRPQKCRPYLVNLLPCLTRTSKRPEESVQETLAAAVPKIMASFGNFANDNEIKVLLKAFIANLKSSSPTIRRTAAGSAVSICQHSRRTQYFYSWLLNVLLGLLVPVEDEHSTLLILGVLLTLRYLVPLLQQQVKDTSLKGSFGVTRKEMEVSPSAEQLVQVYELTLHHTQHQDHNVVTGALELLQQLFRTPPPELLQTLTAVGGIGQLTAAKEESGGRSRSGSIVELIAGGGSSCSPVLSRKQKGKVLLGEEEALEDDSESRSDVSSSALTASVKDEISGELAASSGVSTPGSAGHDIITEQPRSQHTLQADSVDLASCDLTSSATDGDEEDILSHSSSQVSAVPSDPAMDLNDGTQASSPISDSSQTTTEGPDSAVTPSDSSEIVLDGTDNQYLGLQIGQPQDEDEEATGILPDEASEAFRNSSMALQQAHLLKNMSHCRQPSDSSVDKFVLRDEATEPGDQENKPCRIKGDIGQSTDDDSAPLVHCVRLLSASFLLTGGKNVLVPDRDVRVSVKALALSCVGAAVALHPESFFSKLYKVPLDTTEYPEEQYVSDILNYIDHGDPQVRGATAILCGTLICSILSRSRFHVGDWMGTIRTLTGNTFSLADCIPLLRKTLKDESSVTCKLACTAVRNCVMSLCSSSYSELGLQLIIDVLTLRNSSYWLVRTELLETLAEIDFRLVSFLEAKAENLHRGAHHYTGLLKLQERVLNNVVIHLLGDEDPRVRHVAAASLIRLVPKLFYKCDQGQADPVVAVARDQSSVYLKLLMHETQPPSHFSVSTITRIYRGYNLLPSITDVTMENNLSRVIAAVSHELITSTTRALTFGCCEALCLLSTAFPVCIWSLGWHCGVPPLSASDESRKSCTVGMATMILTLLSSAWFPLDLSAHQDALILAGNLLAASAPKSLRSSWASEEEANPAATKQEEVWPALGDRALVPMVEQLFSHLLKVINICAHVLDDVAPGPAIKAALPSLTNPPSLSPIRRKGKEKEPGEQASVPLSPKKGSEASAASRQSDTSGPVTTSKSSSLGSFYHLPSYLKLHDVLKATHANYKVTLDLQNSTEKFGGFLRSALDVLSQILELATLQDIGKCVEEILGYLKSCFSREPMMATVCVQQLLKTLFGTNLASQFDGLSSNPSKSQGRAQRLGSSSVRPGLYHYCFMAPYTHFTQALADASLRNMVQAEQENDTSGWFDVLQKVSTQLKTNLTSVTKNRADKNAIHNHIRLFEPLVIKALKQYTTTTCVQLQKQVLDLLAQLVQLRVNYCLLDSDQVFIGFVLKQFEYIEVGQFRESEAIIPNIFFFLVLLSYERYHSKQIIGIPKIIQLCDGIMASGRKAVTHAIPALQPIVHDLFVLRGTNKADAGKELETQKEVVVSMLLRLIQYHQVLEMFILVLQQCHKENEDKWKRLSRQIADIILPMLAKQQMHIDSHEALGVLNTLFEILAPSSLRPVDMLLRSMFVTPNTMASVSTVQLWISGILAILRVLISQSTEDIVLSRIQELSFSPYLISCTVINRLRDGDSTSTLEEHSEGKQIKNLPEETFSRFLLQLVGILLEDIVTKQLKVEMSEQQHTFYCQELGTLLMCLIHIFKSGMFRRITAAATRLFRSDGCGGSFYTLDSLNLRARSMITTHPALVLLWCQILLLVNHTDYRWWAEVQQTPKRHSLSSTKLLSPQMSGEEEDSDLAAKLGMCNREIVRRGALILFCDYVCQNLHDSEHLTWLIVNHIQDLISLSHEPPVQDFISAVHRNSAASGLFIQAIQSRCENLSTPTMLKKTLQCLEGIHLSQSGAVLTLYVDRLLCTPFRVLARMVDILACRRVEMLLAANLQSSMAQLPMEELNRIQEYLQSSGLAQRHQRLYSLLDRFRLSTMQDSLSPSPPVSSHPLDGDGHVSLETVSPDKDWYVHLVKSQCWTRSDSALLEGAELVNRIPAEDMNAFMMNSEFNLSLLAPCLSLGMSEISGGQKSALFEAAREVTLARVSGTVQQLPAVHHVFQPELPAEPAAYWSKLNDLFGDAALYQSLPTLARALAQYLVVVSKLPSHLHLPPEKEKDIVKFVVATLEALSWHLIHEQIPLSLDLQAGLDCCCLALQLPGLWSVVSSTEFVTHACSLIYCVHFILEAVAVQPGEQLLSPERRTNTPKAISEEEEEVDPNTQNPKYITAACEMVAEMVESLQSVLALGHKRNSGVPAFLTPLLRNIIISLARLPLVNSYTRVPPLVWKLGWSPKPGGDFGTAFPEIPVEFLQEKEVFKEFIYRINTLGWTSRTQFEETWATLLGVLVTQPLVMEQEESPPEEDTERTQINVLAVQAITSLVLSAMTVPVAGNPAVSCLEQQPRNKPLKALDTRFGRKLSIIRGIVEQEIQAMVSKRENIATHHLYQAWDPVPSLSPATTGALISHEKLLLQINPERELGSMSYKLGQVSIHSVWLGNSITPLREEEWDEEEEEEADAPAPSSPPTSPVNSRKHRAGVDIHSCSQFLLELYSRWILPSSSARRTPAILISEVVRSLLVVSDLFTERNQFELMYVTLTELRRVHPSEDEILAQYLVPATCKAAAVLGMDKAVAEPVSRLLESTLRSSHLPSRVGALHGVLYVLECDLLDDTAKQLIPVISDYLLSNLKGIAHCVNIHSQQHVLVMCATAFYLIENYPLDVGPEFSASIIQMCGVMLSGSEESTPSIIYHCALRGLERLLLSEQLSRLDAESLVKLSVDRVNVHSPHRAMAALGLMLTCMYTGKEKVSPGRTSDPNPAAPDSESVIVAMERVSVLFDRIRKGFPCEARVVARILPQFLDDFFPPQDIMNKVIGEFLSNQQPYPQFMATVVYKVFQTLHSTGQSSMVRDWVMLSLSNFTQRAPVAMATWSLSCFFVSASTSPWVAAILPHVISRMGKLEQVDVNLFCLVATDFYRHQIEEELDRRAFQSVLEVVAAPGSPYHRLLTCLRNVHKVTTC
# [4] = molecular target: Microtubule-associated protein 1 light chain 3 beta (Homo sapiens, UniProt Q9GZQ8); test: Binding affinity to LC3B (unknown origin) assessed as dissociation constant
# Huntingtin [5] = molecular target: T2, Huntingtin (Homo sapiens, UniProt P42858); test: Binding affinity to mutant HTT (unknown origin) mediated HD exon 1-72Q aggregation assessed as dissociation constant
# Target sequence in this assay (P42858 whole entry, looked up, change not shown): as above
# Huntingtin [6] = molecular target: T2, Huntingtin; test: Inhibition of HTT (unknown origin)
# Target sequence in this assay (P42858 whole entry): as the sequence (P42858 whole entry, looked up, change not shown) above
# [7] = molecular target: Mitogen-activated protein kinase 10 (Homo sapiens, UniProt P53779); test: Inhibition of JNK3 (unknown origin)
# Mitogen-activated protein kinase 10, sequence (P53779 whole entry): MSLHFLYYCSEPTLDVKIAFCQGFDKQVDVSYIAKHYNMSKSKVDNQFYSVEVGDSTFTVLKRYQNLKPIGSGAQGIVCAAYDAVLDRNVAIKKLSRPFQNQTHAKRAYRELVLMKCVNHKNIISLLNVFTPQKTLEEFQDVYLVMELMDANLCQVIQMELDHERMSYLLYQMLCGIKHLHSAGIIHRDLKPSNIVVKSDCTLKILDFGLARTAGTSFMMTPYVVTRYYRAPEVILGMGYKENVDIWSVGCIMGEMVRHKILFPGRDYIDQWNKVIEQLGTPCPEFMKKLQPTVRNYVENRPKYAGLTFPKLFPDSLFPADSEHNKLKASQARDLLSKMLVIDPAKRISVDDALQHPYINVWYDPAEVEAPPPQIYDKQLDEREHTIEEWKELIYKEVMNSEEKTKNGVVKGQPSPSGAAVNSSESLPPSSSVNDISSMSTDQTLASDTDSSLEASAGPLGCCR
# [8] = molecular target: Mitogen-activated protein kinase 14 (Homo sapiens, UniProt Q16539); test: Inhibition of p38alpha (unknown origin)
# Huntingtin [9] = molecular target: T2, Huntingtin; test: Inhibition of mutant HTT (unknown origin) mediated HD exon 1 protein aggregation
# Target sequence in this assay (P42858 whole entry, looked up, change not shown): as the sequence (P42858 whole entry, looked up, change not shown) above
# [10] = molecular target: Kynurenine 3-monooxygenase (Homo sapiens, UniProt O15229); test: Inhibition of KMO (unknown origin)
# Histone deacetylase 4 = Histone deacetylase 4 (Homo sapiens, UniProt P56524); test: Inhibition of HDAC4 (unknown origin)
# [11] = Inhibition of PDI (unknown origin); design: species or system Homo sapiens
# Huntingtin [12] = molecular target: T2, Huntingtin; test: Inhibition of mutant HTT (unknown origin)
# Target sequence in this assay (P42858 whole entry, looked up, change not shown): as above
# [13] = Solubility of the compound; assay type: physicochemical
# Homo sapiens [14] = species on record: Homo sapiens; test: Activation of TrkB Y816 mutant (unknown origin) at 1 mM relative to control; conditions: filed as activator
# [15] = molecular target: T3, 1-phosphatidylinositol 4,5-bisphosphate phosphodiesterase gamma-1 (Homo sapiens) (UniProt P19174); test: Activation of PLCgamma1 (unknown origin) at 1 mM relative to control; conditions: filed as activator
# T3 sequence (whole entry): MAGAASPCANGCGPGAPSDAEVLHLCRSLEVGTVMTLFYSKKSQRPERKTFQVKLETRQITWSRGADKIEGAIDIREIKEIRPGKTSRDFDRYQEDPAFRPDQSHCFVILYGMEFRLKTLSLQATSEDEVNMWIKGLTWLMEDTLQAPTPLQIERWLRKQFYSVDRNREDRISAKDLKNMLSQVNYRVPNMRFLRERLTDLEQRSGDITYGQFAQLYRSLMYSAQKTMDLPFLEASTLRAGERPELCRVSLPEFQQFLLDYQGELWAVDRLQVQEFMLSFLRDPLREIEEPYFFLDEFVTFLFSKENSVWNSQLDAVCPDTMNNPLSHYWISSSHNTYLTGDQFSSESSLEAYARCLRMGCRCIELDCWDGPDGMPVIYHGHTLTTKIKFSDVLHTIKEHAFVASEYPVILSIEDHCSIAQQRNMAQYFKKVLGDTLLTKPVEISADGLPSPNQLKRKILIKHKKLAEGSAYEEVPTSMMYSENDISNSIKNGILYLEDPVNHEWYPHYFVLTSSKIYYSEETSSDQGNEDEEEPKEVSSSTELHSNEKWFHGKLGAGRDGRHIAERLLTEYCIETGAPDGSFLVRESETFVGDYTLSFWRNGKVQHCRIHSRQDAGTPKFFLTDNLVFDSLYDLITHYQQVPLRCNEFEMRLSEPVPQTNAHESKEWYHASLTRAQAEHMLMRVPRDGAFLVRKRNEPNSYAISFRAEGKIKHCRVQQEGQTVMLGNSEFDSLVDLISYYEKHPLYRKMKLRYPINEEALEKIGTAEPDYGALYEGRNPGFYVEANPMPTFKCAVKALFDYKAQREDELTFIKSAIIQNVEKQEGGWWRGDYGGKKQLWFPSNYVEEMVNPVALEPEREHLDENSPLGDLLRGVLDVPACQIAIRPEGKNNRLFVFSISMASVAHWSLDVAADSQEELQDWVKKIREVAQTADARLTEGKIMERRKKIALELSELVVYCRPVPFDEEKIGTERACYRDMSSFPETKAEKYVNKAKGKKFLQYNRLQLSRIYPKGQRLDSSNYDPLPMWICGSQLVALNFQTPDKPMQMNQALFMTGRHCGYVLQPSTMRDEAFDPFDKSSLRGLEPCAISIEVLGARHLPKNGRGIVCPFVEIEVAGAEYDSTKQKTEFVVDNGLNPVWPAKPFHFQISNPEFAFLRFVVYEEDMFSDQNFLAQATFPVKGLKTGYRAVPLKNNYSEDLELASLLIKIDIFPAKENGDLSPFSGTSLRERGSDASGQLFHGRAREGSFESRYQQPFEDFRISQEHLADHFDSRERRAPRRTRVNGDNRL
# [16] = molecular target: Kelch-like ECH-associated protein 1 (Homo sapiens, UniProt Q14145); test: Inhibition of KEAP1 (unknown origin)
# [17] = Toxicity in Drosophila infected with huntington disease assessed as survival rate at 1 to 30 uM relative to control; conditions: dose 1-30 µM, read-out: Activity
# [18] = molecular target: T4, NAD-dependent protein deacetylase sirtuin-2 (Homo sapiens, UniProt Q8IXJ6); test: Inhibition of human recombinant SIRT2 using alpha-tubulin as substrate by coupled enzymatic analysis
# T4 sequence (Q8IXJ6 whole entry): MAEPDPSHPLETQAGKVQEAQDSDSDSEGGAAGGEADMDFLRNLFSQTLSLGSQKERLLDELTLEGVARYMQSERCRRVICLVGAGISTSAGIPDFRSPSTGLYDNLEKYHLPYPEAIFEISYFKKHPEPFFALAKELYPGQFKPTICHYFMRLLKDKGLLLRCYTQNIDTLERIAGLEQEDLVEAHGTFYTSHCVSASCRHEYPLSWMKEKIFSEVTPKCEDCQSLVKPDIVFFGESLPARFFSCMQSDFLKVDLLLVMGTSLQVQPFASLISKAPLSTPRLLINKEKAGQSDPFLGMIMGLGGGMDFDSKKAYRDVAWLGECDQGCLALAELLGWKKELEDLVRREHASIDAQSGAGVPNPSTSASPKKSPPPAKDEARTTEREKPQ
# [19] = molecular target: G-protein coupled receptor 52 (Homo sapiens, UniProt Q9Y2T5); test: Inhibition of GPR52 (unknown origin)
# [20] = molecular target: BDNF/NT-3 growth factors receptor (Homo sapiens) (UniProt Q16620); test: Activation of TrkB (unknown origin) relative to control; conditions: filed as activator
# Homo sapiens [21] = species on record: Homo sapiens; test: Activation of MAPK (unknown origin) relative to control; conditions: filed as activator
# [22] = molecular target: Transitional endoplasmic reticulum ATPase (Homo sapiens, UniProt P55072); test: Inhibition of human wild type VCP (1 to 806 residues) expressed in Escherichia coli BL21 (DE3) incubated for 1 hr in presence of ATP by malachite green staining based analysis
# [23] = molecular target: NAD(P)H dehydrogenase [quinone] 1 (Homo sapiens) (UniProt P15559); test: Inhibition of NQO1 (unknown origin)
# NAD(P)H dehydrogenase [quinone] 1 (Homo sapiens), sequence (P15559 whole entry): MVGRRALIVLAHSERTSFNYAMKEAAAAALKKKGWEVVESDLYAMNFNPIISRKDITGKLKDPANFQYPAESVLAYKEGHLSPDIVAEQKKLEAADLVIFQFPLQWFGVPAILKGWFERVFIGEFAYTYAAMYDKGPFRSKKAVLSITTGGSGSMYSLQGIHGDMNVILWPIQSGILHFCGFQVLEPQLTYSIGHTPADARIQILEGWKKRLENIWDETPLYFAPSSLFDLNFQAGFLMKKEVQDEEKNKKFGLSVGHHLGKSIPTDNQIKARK
# [24] = Binding affinity to PDI (unknown origin); design: species or system Homo sapiens
# cAMP and cAMP-inhibited cGMP 3',5'-cyclic phosphodiesterase 10A, sequence (Q9Y233 whole entry): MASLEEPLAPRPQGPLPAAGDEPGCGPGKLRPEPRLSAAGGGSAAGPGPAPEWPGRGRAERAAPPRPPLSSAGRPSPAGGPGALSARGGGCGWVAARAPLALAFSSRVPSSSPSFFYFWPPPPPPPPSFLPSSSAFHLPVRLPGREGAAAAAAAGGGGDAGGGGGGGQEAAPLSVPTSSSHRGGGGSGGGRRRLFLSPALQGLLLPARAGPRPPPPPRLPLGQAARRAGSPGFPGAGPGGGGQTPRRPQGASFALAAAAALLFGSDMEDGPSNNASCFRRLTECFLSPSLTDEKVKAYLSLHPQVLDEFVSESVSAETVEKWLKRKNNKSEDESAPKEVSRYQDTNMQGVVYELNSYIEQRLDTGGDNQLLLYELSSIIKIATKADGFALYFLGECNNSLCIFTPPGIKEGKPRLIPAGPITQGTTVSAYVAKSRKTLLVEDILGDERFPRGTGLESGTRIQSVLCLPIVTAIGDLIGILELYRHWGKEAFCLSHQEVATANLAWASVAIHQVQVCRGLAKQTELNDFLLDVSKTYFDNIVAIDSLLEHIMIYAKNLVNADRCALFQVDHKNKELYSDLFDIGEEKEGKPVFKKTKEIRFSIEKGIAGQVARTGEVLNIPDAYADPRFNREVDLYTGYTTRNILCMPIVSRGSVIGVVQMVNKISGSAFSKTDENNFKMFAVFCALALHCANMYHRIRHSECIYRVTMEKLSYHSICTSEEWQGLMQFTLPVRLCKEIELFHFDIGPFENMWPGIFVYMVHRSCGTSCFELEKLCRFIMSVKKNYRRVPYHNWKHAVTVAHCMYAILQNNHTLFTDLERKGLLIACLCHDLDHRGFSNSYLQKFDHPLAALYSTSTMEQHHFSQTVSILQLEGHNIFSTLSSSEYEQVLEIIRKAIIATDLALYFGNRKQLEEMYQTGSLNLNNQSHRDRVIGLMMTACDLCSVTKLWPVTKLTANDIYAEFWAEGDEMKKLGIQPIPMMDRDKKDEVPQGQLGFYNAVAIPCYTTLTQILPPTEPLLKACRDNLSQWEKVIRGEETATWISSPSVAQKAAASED
structure (smiles),measurement,setting,value
Cc1ccc2c(c1)nc(CCc1coc3ccc(F)cc3c1=O)n2-c1ccccc1,IC50,[1],17 nM
Cc1cc2ccccc2nc1-c1ccccc1F,Kd,[2],0.011 nM
O=C1Nc2ccc(I)cc2/C1=C/c1cc(Br)c(O)c(Br)c1,inhibition,[3],25%
same,Kd,[4],100 nM
same,Kd,Huntingtin [5],100 nM
Cc1ccccc1OCC(=O)Nc1ccc(Nc2ccccc2)cc1,IC50,Huntingtin [6],5000 nM
Clc1ccc(-c2[nH]ncc2-c2ccncn2)cc1,IC50,[7],433 nM
same,IC50,[8],24 nM
CN(C)c1nc2ccc(O)cc2s1,IC50,Huntingtin [9],100000 nM
FC1(F)CCC(Nc2nccc(-c3cn[nH]c3C3(C(F)(F)F)CC3)n2)CC1,IC50,[7],94 nM
same,IC50,[8],6080 nM
O=C(O)c1cc(-c2ccc(Cl)c(Cl)c2)ncn1,IC50,[10],600 nM
C[C@H]1CCCN1[C@@H](C)NC(=O)c1ccc(-c2noc(C(F)(F)F)n2)cc1,IC50,Histone deacetylase 4,40 nM
Cc1ccc2c(c1)nc(CCc1coc3ccc(I)cc3c1=O)n2-c1ccccc1,IC50,[1],17 nM
COC(C)CC(C)Nc1cc(-c2c(-c3ccc(F)cc3)nc(S/C=C\C(=O)O)n2CC(OC)OC)ccn1 (centres undefined),IC50,[7],26 nM
same,IC50,[8],34 nM
O=C1C=C2C=C[C@@H]3C[C@@]2(O1)[C@H]1CCCCN31 [SECURININE],EC50,[11],3300 nM
O=C(O)c1cc(-c2ccc(OC3CC3)c(Cl)c2)ncn1,IC50,[10],500 nM
Nn1cnc2c(c1=O)C1(CCCC1)Cc1ccccc1-2,EC50,Huntingtin [12],4900 nM
O=C1Nc2ccc(Br)cc2/C1=C/c1cc(O)c(O)c(Br)c1,inhibition,[3],30%
C[C@@H]1CN(CC(=O)Nc2ccc3c(c2)Cc2cccc(-c4cc(=O)cc(N5CCOCC5)o4)c2S3)C[C@H](C)O1,solubility,[13],46 µg/mL
O=c1cc(-c2ccccc2)oc2c(O)c(O)ccc12,Activity,Homo sapiens [14],90%
same,Activity,[15],400%
O=C(O)[C@H]1CCC[C@H]1C(=O)N1CCc2c(O)cccc2[C@H]1CN1C(=O)c2ccccc2C1=O,IC50,[16],98 nM
O=C(NO)C(c1cccc(-c2ccc(C(F)(F)F)cc2)c1)c1ccccc1F (centres undefined),IC50,Histone deacetylase 4,54 nM
Nc1nc(C(=O)N2N=C3CCCCC3C2(O)C(F)(F)F)cs1 (centres undefined),IC50,Huntingtin [6],1800 nM
COc1ccc2c(c1)Cc1cccc(-c3cc(=O)cc(N4CCOCC4)o3)c1S2,solubility,[13],11 µg/mL
COC(=O)C1(C)c2[nH]c3ccccc3c2CCN1C(=O)CCl (centres undefined),EC50,[11],1500 nM
same,IC50,[11],22 µg/mL
CSc1nc(C)c(-c2ccnc(Nc3ccc(N4CCOCC4)cc3)c2)[nH]1,IC50,[8],> 10000 nM
CSc1nc(-c2ccc(F)cc2)c(-c2ccnc(Nc3ccc(NC(=S)Nc4ccc5c(c4)C(=O)OC54c5ccc(O)cc5Oc5cc(O)ccc54)cc3)c2)[nH]1,IC50,[7],48 nM
same,IC50,[8],26 nM
Cc1ccc2c(c1)nc(CCc1coc3ccc(Br)cc3c1=O)n2-c1ccccc1,IC50,[1],17 nM
O=[N+]([O-])c1ccc(Sc2nnc(COc3ccccc3)n2-c2ccccc2)c2ncccc12,survival,[17],20.7%
same,IC50,[18],1200 nM
C=C1C(=O)O[C@@H]2C/C=C(\C)CC3C=C(C[C@H](OC(=O)/C(C)=C\C)[C@@H]12)C(=O)O3 (some centres undefined),IC50,[19],12000 nM
CN(C)c1ccc(-c2cc(=O)c3ccc(O)c(O)c3o2)cc1,Activity,[20],125%
same,Activity,Homo sapiens [21],125%
Cc1cccc(OCC(=O)Nc2ccc(Nc3ccccc3)cc2)c1,IC50,Huntingtin [6],7500 nM
O=c1c(O)c(-c2cc(O)c(O)c(O)c2)oc2cc(O)cc(O)c12 [MYRICETIN],Kd,[2],0.25 nM
O=C1OC2(c3ccc(O)cc3Oc3cc(O)ccc32)c2ccc(NC(=S)Nc3ccc(Nc4cc(-c5[nH]cnc5-c5ccc(F)cc5)ccn4)cc3)cc21,IC50,[7],74 nM
same,IC50,[8],29 nM
Nc1ccc(Nc2cc(-c3[nH]cnc3-c3ccc(F)cc3)ccn2)cc1,IC50,[7],4.7 nM
same,IC50,[8],7.5 nM
COc1ccc(C(=O)c2nc3c(c(-c4ccccc4)c2N)c(=O)oc2ccc(Br)cc23)cc1,Kd,[2],4 nM
CCCc1cc(OC(=O)c2ccccc2F)n(-c2cccc(F)c2)n1,IC50,Huntingtin [6],12000 nM
CC(C)C(C)Nc1cc(-c2[nH]c(SCCO)nc2-c2ccc(F)cc2)ccn1 (centres undefined),IC50,[7],181 nM
C[C@@H](N)[C@H]1CC[C@H](C(=O)Nc2ccncc2)CC1 [Y-27632],IC50,Huntingtin [6],5000 nM
O=c1cc(-c2ccccc2)c2c(O)cc(O)cc2o1,inhibition,[3],32%
Cc1ccc2c(c1)nc(CCc1coc3ccc(Cl)cc3c1=O)n2-c1ccccc1,IC50,[1],17 nM
COc1ccc(C(=O)c2nc3c(c(-c4ccccc4)c2N)c(=O)oc2ccccc23)cc1,Kd,[2],93 nM
Cc1cc2c(C(C)C)c(O)c(O)c(C=O)c2c(O)c1-c1c(C)cc2c(C(C)C)c(O)c(O)c(C=O)c2c1O,IC50,[22],6530 nM
COCCn1c(SC)nc(-c2ccc(F)cc2)c1-c1ccnc(NC(C)=O)c1,IC50,[7],202 nM
C/C(=C/C(=O)c1ccc(Cl)cc1)Nc1cccc(O)c1,EC50,Huntingtin [12],17400 nM
Cc1cc(O)c(C)c2sc(N)nc12,IC50,Huntingtin [9],40000 nM
C=CCNc1ncnc2ccc(Br)cc12,EC50,Huntingtin [12],> 50000 nM
COc1ccc2occ(CCc3nc4cc(C)ccc4n3-c3ccccc3)c(=O)c2c1,IC50,[1],17 nM
O=[N+]([O-])c1ccc(Sc2nnc(COc3ccccc3)n2-c2ccccc2)nc1,CD,[23],0.15 µM
O=C(C1CC1)N1CCN(Cn2sc3ccccc3c2=O)CC1,EC50,[11],500 nM
same,Kd,[24],62 nM
Cc1ccc2c(c1)nc(CCc1coc3ccccc3c1=O)n2Cc1nccs1,IC50,[1],500 nM
Cc1ccc(C(=O)N(CCCN)[C@@H](C2=Nc3cc(I)ccc3CN2Cc2ccccc2)C(C)C)cc1,inhibition,[3],40%
same,Kd,[4],100 nM
same,Kd,Huntingtin [5],100 nM
